Like-named read-outs stand apart in the source and are kept apart here.
What was measured:
[1] = system: ROCK2 expression in RDES, 6647, IOR/CAR and TC-71 ES cells; assay: ROCK2 expression by immunoblot in ES cells; format: cell-based, human; conditions: 24 h, vs DMSO-treated control cells
Description: Immunoblot analysis was performed on total cell lysates for ROCK2 and GAPDH expression. In FIG. 8B, TC-71 control and TC-CD99-shRNA #2 cells were treated with either drug at indicated concentrations for 1, 3 and 6 h. Immunoblot analysis was performed on total cell lysates for ROCK2 and GAPDH expression. In FIG. 8C, cell migration experiments were performed using Boyden chamber transwell migration assay with 10% serum serving as the chemoattractant in the lower chamber. […] The number of migrated cells was then quantified by counting the cells in the bottom chamber under the microscope. Asterisks indicate statistically significant differences between treatments (*p<0.05; vs. control using a Student's unpaired t test). […]

SKES xenografts = assay: Orthotopic SKES xenograft, i.p. administration; format: in vivo, SCID/beige mice; conditions: for tumor growth: i.p.
Description: All tumor tissues were fixed in 10% neutral buffered formalin for 24 h, dehydrated through a graded series of alcohols and cleared in xylenes prior to embedding in paraffin. Embedded tissues were cut into 5 μm thick sections and stained with hematoxylin and eosin (H&E). Immunohistochemical staining was performed for CD99 and caspase 3 (cleaved). Five micron sections from formalin fixed paraffin embedded tissues were de-paraffinized with xylenes and rehydrated through a graded alcohol series. Heat induced epitope retrieval was performed by immersing the tissue sections at 98° C. for 60 min in 10 mmol/L citrate buffer (pH 6.0). Immunohistochemical staining was performed using a horseradish peroxidase labeled polymer from Agilent (Santa Clara, Calif.) (#K4001, #K4003) according to manufacturer's instructions. Briefly, slides were treated with 3% hydrogen peroxide and 10% normal goat serum for 10 min each, and exposed to primary antibodies for CD99 (Abcam, #ab8855) at a 1:100 dilution and for caspase 3 (cleaved) (Biocare (Pacheco, Calif.), #CP229A) at a 1:90 dilution in Da Vinci Green for one hour and stained on an DAKO Autostainer. Slides were exposed to the appropriate HRP labeled polymer for 30 min and DAB chromogen (Dako (Santa Clara, Calif.) for 5 min. Slides were counterstained with Hematoxylin (Fisher, Harris Modified Hematoxylin), blued in 1% ammonium hydroxide, dehydrated, and mounted with Acrymount. Consecutive sections with the primary antibody omitted were used as negative controls. The sections were evaluated in a blinded fashion by a board certified pathologist.
(§1) The antitumor activity of drugs through intraperitoneal (i.p.) administration given once daily was determined. […] The in vivo potencies of drug treatments were evaluated by event-free survival curves, where tumors that reached 1.0 cm^3 in size considered an event.

RDES ES cells = assay: Cell viability IC50, RDES; format: cell-based; conditions: Homo sapiens, RD-ES
TC-71 xenografts = assay: Orthotopic TC-71 xenograft, i.p. administration; format: in vivo, SCID/beige mice; conditions: clofarabine 30 mg/kg, cladribine 20 mg/kg; for event-free survival: i.p. once daily 14 days, vs vehicle; for tumor growth: i.p.
Description: as §1

[2] = system: TC-71 and RD-ES cell lines; assay: Dose-dependent cytotoxicity assay in ES cell lines; format: cell-based, human; conditions: Homo sapiens; dose-response at 1, 3, 10 and 30 μmol/L in TC-71 and RD-ES
Description: (§2) The plate was installed into the RTCA system, and the electrical impedance (represented as cell index) was measured every 10 min.
The primary screen was based on a direct binding assay using surface plasmon resonance (SPR) technology with purified extracellular domain of CD99 (CD99-ECD) protein that was immobilized on a neutravidin-coated sensor chip. […] A negative control protein was used in order to eliminate non-specific binders. […] Dose-response studies were performed with 2 compounds at 1, 3, 10 and 30 μmol/L concentration in ES cell lines.

non-ES cell lines = assay: Cell viability IC50 panel, non-ES cell lines; format: cell-based; conditions: 48 h; highest concentration tested (10 or 30 μmol/L) used for resistant lines; unit not printed with values
Description: as §2
Therefore, two leukemia cell lines, MOLT-4 and Jurkat, were included as positive controls in this experiment.

IOR/OS10 OS cells = assay: Cell viability IC50, IOR/OS10; format: cell-based; conditions: Homo sapiens
Description: as §2
(§3) To investigate the relationship between the level of CD99 expression and drug sensitivity, the endogenous expression of CD99 was determined in a panel of 9 ES and 13 non-ES cell lines. The recombinant purified CD99-ECD protein was used to generate standard curves for immunoquantification of CD99 expression by immunoblotting (FIGS. 6B and 6C).

TC-71 ES cells = assay: Cell viability IC50, TC-71; format: cell-based, human; conditions: for IC50: Homo sapiens; for Fold changes in IC50: TC-71 parental cells, mean ± SD
6647 and TC-71 ES cells = assay: Transwell cell migration assay; format: cell-based, human; conditions: 24 h pre-treatment; cladribine 1 or 3 μmol/L, clofarabine 0.3 or 0.5 μmol/L
Description: Immunoblot analysis was performed on total cell lysates for ROCK2 and GAPDH expression. In FIG. 8B, TC-71 control and TC-CD99-shRNA #2 cells were treated with either drug at indicated concentrations for 1, 3 and 6 h. Immunoblot analysis was performed on total cell lysates for ROCK2 and GAPDH expression. In FIG. 8C, cell migration experiments were performed using Boyden chamber transwell migration assay with 10% serum serving as the chemoattractant in the lower chamber. […] The number of migrated cells was then quantified by counting the cells in the bottom chamber under the microscope. Asterisks indicate statistically significant differences between treatments (*p<0.05; vs. control using a Student's unpaired t test).
Motility assay was done using Trans-well chambers (Costar; Corning (Corning, N.Y.)) according to manufacturer's instructions.

IOR/OS14 OS cells = assay: Cell viability IC50, IOR/OS14; format: cell-based; conditions: Homo sapiens
Description: as §2, §3

SMILES | ROCK2 expression [1] | tumor growth (SKES xenografts; 20 mg/kg both) | total body weight (mouse, in vivo) | IC50 (RDES ES cells) [nM] | event-free survival (TC-71 xenografts) | tumor growth (TC-71 xenografts) | IC50 [2] [nM] | IC50 (non-ES cell lines) [nM] | IC50 (IOR/OS10 OS cells) [nM] | IC50 (TC-71 ES cells; TC-71 (ES), Table 1) [nM] | Fold changes in IC50 (TC-71 ES cells) | number of migrated cells (6647 and TC-71 ES cells) | IC50 (IOR/OS14 OS cells) [nM] | mitotic figures per field (SKES xenografts; H&E, 200-fold magnification) | apoptotic cells (SKES xenografts; H&E, confirmed by caspase-3 immunohistochemistry) | event-free survival (SKES xenografts; i.p. once daily, 20 mg/kg both, vs vehicle) | tolerability (TC-71 and SKES xenograft models, clofarabine 30 mg/kg in TC-71) | total body weight (weighed daily during treatment) | event-free survival (TC-71 xenografts; listed as Clofarabine) | IC50 (TC-71 ES cells; TC-71 cells, WST-1, 48 h (FIG. 10B)) [nM]
Nc1nc(Cl)nc2c1ncn2[C@H]1C[C@H](O)[C@@H](CO)O1 [cladribine] | notable decrease | less effective | does not change | 660 | significantly different | grew slower | < 1000 | ≥ 20000 | 11400 | 500 | 1.02 ± 0.27 (n = 5) | significantly decreased | > 30000 | – | – | – | – | – | – | –
Nc1nc(Cl)nc2c1ncn2[C@@H]1O[C@H](CO)[C@@H](O)[C@@H]1F [clofarabine] | notable decrease | significant inhibition of tumor growth | – | 490 | not statistically significant | significant inhibition of tumor growth | < 1000 | ≥ 13700 | 1370 | 150 | 1.10 ± 0.38 (n = 8) | significantly decreased | > 10000 | ≤ 3 | significant increase | significantly improved | early deaths | does not change | significantly improved | 150

— patent US11202792B2, “CD99 inhibitors and their uses” (GEORGETOWN UNIVERSITY, priority 2016, dated 2021)
